Assay results published in paper PMC4688878 (Chemical Research in Toxicology, 2015).

Biological target: T1, porcine liver COMT (Sus scrofa, UniProt Q99028)
T1 sequence (Q99028 1-186): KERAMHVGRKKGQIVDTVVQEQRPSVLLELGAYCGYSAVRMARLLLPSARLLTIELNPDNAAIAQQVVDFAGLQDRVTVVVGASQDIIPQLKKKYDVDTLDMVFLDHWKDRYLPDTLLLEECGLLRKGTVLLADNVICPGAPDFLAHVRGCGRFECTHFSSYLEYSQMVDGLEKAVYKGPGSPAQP
Test: Catechol O-methyltransferase activity assay
Assay type: biochemical
Conditions: 1 mM sinefungin; 1 mM SAM; 2 h at 37 °C

With `Nc1ncnc2c1ncn2[C@@H]1O[C@H](C[C@@H](N)CC[C@H](N)C(=O)O)[C@@H](O)[C@H]1O` [singfungin, sinefungin] the “inhibition of COMT activity” value was “significantly inhibited”.
